Assay results published in US11447466B2, “Substituted indole compounds useful as inhibitors of TLR7/8/9” (BRISTOL-MYERS SQUIBB COMPANY, priority 2017, dated 2022).

Tests used:
Assay type in all cases: cell-based
human TLR9 = target: T1, human TLR9 (Homo sapiens, UniProt Q9NR96); experiment: TLR9 inhibition reporter assay (HEK-Blue SEAP reporter, ODN2006 stimulation); conditions: HEK-Blue cells overexpressing human TLR9, SEAP reporter, ODN2006 5 nM, 22 hour incubation
T1 construct: host or cells: HEK-Blue cells
T1 sequence (Q9NR96 26-1032): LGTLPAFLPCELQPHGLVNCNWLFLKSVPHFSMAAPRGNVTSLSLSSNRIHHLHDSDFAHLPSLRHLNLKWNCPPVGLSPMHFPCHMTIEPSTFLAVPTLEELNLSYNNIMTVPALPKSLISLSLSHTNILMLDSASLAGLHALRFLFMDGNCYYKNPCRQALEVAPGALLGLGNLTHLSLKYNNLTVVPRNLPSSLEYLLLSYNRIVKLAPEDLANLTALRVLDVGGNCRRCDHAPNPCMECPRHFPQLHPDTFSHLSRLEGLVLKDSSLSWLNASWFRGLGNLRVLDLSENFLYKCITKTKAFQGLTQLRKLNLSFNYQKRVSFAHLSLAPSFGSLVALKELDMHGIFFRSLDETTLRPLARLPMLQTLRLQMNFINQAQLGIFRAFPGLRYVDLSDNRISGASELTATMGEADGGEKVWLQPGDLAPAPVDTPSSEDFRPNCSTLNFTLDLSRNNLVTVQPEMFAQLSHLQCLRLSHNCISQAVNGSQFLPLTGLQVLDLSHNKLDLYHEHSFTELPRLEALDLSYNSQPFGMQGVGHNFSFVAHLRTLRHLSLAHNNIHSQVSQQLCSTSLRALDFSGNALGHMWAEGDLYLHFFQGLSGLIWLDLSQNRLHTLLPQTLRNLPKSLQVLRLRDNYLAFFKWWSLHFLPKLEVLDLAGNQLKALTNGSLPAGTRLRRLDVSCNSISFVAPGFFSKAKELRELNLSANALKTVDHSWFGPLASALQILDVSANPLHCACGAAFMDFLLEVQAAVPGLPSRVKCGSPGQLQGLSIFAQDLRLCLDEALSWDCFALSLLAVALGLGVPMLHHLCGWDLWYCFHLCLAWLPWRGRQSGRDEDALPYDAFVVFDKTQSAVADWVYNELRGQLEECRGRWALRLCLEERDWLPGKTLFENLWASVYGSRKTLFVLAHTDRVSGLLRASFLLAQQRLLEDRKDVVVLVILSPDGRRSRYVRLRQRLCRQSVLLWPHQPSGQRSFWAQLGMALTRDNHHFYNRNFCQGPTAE
Outline: (§1)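 Screening used HEK-Blue cells overexpressing one human TLR (7, 8 or 9) and an IFN-β minimal promoter–NF-κB/AP-1 SEAP construct. Stimulation lasted 22 h at 37 °C with receptor-specific agonist: gardiquimod, R848 or ODN2006 at 7.5 μM, 15.9 μM and 5 nM.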

human TLR8 = target: T2, human TLR8 (Homo sapiens, UniProt Q9NR97); experiment: TLR8 inhibition reporter assay (HEK-Blue SEAP reporter, R848 stimulation); conditions: HEK-Blue cells overexpressing human TLR8, SEAP reporter, R848 15.9 μM, 22 hour incubation
T2 construct: host or cells: HEK-Blue cells
T2 sequence (Q9NR97 27-1041): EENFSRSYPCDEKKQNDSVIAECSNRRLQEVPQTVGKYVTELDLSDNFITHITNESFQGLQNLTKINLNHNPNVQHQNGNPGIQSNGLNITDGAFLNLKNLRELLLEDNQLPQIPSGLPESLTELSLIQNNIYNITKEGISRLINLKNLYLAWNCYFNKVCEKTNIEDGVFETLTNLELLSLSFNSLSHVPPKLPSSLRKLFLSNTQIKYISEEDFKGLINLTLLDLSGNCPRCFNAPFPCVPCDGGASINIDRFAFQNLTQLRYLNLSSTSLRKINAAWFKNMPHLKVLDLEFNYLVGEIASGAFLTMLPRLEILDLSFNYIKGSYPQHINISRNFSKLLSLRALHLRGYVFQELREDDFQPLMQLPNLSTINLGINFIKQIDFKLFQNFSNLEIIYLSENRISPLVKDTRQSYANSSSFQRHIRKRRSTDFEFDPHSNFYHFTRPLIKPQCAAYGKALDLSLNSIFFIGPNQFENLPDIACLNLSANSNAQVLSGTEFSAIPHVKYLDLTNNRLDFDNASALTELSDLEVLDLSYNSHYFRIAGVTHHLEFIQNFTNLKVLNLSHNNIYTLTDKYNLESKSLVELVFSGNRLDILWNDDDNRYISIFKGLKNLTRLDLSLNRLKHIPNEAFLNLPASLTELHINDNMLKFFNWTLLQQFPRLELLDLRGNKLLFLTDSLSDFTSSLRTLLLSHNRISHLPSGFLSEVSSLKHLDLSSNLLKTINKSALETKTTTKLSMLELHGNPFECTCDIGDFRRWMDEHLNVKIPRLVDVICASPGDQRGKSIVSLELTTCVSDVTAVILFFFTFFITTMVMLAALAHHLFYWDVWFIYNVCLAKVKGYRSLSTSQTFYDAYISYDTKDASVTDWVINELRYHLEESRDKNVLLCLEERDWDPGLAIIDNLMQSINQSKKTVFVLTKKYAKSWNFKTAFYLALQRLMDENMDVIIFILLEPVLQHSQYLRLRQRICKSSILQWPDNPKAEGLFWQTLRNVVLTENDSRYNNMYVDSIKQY
Outline: as §1

human TLR7 = target: T3, human TLR7 (Homo sapiens, UniProt Q9NYK1); experiment: TLR7 inhibition reporter assay (HEK-Blue SEAP reporter, gardiquimod stimulation); conditions: HEK-Blue cells overexpressing human TLR7, SEAP reporter, gardiquimod 7.5 μM, 22 hour incubation
T3 construct: host or cells: HEK-Blue cells
T3 sequence (Q9NYK1 27-1049): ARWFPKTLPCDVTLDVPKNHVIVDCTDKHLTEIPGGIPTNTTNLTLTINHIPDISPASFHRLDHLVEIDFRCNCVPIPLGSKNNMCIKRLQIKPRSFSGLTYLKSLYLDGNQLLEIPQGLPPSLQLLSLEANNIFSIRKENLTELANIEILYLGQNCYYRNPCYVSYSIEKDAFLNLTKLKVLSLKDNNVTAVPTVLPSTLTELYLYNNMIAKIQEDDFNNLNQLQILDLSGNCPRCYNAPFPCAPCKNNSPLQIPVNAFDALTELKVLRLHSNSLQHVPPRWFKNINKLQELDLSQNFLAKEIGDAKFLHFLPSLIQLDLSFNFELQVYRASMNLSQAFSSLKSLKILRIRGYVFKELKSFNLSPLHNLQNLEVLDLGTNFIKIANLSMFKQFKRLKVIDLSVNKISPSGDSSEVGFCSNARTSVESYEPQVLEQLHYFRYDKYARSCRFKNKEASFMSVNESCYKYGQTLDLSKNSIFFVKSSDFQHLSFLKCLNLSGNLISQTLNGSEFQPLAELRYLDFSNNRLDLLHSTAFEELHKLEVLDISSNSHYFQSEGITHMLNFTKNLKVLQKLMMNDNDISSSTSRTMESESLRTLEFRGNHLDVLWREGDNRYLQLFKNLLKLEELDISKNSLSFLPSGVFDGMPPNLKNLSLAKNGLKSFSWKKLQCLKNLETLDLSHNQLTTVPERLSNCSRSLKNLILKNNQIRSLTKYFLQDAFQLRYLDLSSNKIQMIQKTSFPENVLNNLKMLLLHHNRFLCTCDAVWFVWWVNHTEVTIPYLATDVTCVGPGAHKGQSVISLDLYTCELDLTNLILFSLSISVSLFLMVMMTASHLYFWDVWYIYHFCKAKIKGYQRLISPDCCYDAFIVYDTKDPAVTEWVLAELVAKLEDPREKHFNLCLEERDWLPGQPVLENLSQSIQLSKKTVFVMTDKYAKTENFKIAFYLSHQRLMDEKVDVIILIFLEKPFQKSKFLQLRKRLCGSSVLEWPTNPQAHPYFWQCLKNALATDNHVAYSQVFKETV
Outline: as §1

For Cc1cc(-c2[nH]c3ccc(C4CCN(C(=O)[C@H]5NCC[C@@H]5O)CC4)cc3c2C(C)C)cn(C)c1=O [Example 291, 5-(5-(1-((2S,3S)-3-hydroxypyrrolidine-2-carbonyl)piperidin-4-yl)-3-isopropyl-1H-indol-2-yl)-1,3-dimethylpyridin-2(1H)-one], the IC50 (human TLR9) was 1420 nM, the IC50 (human TLR8) was 11.2 nM and the IC50 (human TLR7) was 12.3 nM.
COc1ncccc1-c1cc(-c2[nH]c3ccc(C4CCNCC4)cc3c2C(C)C)cn(C)c1=O [Example 57, 5-(3-isopropyl-5-(piperidin-4-yl)-1H-indol-2-yl)-2′-methoxy-1-methyl[3,3′-bipyridin]-2(1H)-one] was tested, and the IC50 (human TLR9) was 1360 nM, the IC50 (human TLR8) was 81.9 nM and the IC50 (human TLR7) was 68.4 nM.
Work on Cc1c(-c2[nH]c3ccc(C4CCN(C(=O)CN(C)C)CC4)cc3c2C(C)C)cn(C)c(=O)c1Cl [Example 278, 3-chloro-5-(5-(1-(dimethylglycyl)piperidin-4-yl)-3-isopropyl-1H-indol-2-yl)-1,4-dimethylpyridin-2(1H)-one] yielded an IC50 (human TLR9) of 3200 nM, an IC50 (human TLR8) of 21 nM and an IC50 (human TLR7) of 5.3 nM.
Cc1cc(-c2[nH]c3ccc(C4CCNCC4)cc3c2C(C)C)cn(CC(C)C)c1=O [Example 36, 1-isobutyl-5-(3-isopropyl-5-(piperidin-4-yl)-1H-indol-2-yl)-3-methylpyridin-2(1H)-one] showed an IC50 (human TLR9) of 1310 nM, an IC50 (human TLR8) of 81.2 nM and an IC50 (human TLR7) of 9.6 nM.
Work on CNC(=O)CN1CCC(c2ccc3[nH]c(-c4cc(C#N)c(=O)n(C)c4C)c(C(C)C)c3c2)CC1 [Example 144, 2-(4-(2-(5-cyano-1,2-dimethyl-6-oxo-1,6-dihydropyridin-3-yl)-3-isopropyl-1H-indol-5-yl)piperidin-1-yl)-N-methylacetamide] yielded an IC50 (human TLR9) of 11400 nM, an IC50 (human TLR8) of 4.7 nM and an IC50 (human TLR7) of 59.9 nM.
Cc1cc(-c2[nH]c3ccc(C4CCN(C5CCOCC5)CC4)cc3c2C(C)C)cn(CC(C)C)c1=O [Example 262, 1-isobutyl-5-(3-isopropyl-5-(1-(tetrahydro-2H-pyran-4-yl)piperidin-4-yl)-1H-indol-2-yl)-3-methylpyridin-2(1H)-one] showed an IC50 (human TLR9) of 2120 nM, an IC50 (human TLR8) of 52.3 nM and an IC50 (human TLR7) of 47.7 nM.
In the case of Cc1cc(-c2[nH]c3ccc(C4CCNCC4)cc3c2C(C)C)cn(C)c1=O [Example 2, 5-(3-isopropyl-5-(piperidin-4-yl)-1H-indol-2-yl)-1,3-dimethylpyridin-2(1H)-one], the IC50 (human TLR9) is reported as 4340 nM, the IC50 (human TLR8) is reported as 5.1 nM and the IC50 (human TLR7) is reported as 1.6 nM.
Cc1cc(-c2[nH]c3ccc(C4CCN(C5CCOCC5)CC4)cc3c2C(C)C)cn(C)c1=O [Example 178, 5-(3-isopropyl-5-(1-(tetrahydro-2H-pyran-4-yl)piperidin-4-yl)-1H-indol-2-yl)-1,3-dimethylpyridin-2(1H)-one] was tested, and the IC50 (human TLR9) was 7090 nM, the IC50 (human TLR8) was 3.2 nM and the IC50 (human TLR7) was 3.9 nM.
Work on CNC(=O)CN1CCC(c2ccc3[nH]c(-c4cn(C)c(=O)c(OC)c4C)c(C(C)C)c3c2)CC1 [Example 140, 2-(4-(3-isopropyl-2-(5-methoxy-1,4-dimethyl-6-oxo-1,6-dihydropyridin-3-yl)-1H-indol-5-yl)piperidin-1-yl)-N-methylacetamide] yielded an IC50 (human TLR9) of 21900 nM, an IC50 (human TLR8) of 39.7 nM and an IC50 (human TLR7) of 47.8 nM.
In the case of COCc1cc(-c2[nH]c3ccc(C4CCN(C(=O)CN(C)C)CC4)cc3c2C(C)C)cn(C)c1=O [Example 277, 5-(5-(1-(dimethylglycyl)piperidin-4-yl)-3-isopropyl-1H-indol-2-yl)-3-(methoxymethyl)-1-methylpyridin-2(1H)-one], the IC50 (human TLR9) is reported as 15600 nM, the IC50 (human TLR8) is reported as 21 nM and the IC50 (human TLR7) is reported as 9.3 nM.
Work on Cc1cc(-c2[nH]c3ccc(C4CCN([C@H]5CCOC[C@@H]5O)CC4)cc3c2C(C)C)cn(C)c1=O [Example 313, 5-(5-(1-((3R,4S)-3-hydroxytetrahydro-2H-pyran-4-yl)piperidin-4-yl)-3-isopropyl-1H-indol-2-yl)-1,3-dimethylpyridin-2(1H)-one] yielded an IC50 (human TLR9) of 8040 nM, an IC50 (human TLR8) of 3.1 nM and an IC50 (human TLR7) of 4.7 nM.
With Cc1c(-c2[nH]c3ccc(C4CCN(C(=O)CN(C)C)CC4)cc3c2C(C)C)cn(C)c(=O)c1C [Example 280, 5-(5-(1-(dimethylglycyl)piperidin-4-yl)-3-isopropyl-1H-indol-2-yl)-1,3,4-trimethylpyridin-2(1H)-one] the IC50 (human TLR9) was 4570 nM, the IC50 (human TLR8) was 9 nM and the IC50 (human TLR7) was 6.1 nM.
For CCCN1CCC(c2ccc3[nH]c(-c4cc(COC)c(=O)n(C)c4)c(C(C)C)c3c2)CC1 [Example 348, 5-(3-isopropyl-5-(1-propylpiperidin-4-yl)-1H-indol-2-yl)-3-(methoxymethyl)-1-methylpyridin-2(1H)-one], the IC50 (human TLR9) was 10800 nM, the IC50 (human TLR8) was 25.3 nM and the IC50 (human TLR7) was 7.1 nM.
With CC(C)c1c(-c2cc(-c3cccnc3)c(=O)n(C)c2)[nH]c2ccc(C3CCN(CC(=O)N(C)C)CC3)cc12 [Example 169, 2-(4-(3-isopropyl-2-(1-methyl-2-oxo-1,2-dihydro-[3,3′-bipyridin]-5-yl)-1H-indol-5-yl)piperidin-1-yl)-N,N-dimethylacetamide] the IC50 (human TLR9) was 1800 nM, the IC50 (human TLR8) was 6.2 nM and the IC50 (human TLR7) was 11.9 nM.
